Source: PMC5349917, “Octreotide-periplocymarin conjugate prodrug for improving targetability and anti-tumor efficiency: synthesis, in vitro and in vivo evaluation” (Oncotarget, 2016)
“And” between values parts separate entries of the source, which are not always exact repeats. Equal values may be shown once. Read-outs that look alike come from different tables or passages of the source.

Experiments:
HepG2 hepatoma cells = test: MTT growth inhibition assay, HepG2 cells; assay type: cell-based, human
Protocol: (§1) To test the antitumor activities of the synthesized compounds, we evaluated antiproliferative activities of these compounds against human cancer cell lines (Breast cancer cells, MCF-7; Hepatoma cells, HepG2) and human normal cell line (Liver cells, L-02), using the MTT assay as reported in previous studies. Both cell lines were obtained from the Cell Bank of Academy of Science (Shanghai, China).
(§2) After incubation, 20 μL of MTT (5 mg/mL in pH 7.4 PBS) was added to each well, and the plates further incubated at 37°C for 4 h. The medium was then replaced with 100 μL DMSO. The optical density was measured by Microplate Reader (Thermo Electron Corporation) at 595 nm.
(§3) Statistical significance of differences between treatment groups in the biodistribution and anti-tumor effect were assessed using an unpaired Student’s t-test. A p-value of less than 0.05 was considered significant.

[1] = Tissue distribution in H22 cell tumor bearing mice; assay type: in vivo, mouse; settings: for AUC0–t Heart / AUC0–t Kidney / AUC0–t Liver / AUC0–t Lung / AUC0–t Plasma / AUC0–t Spleen / AUC0–t Tumor: level of PPM, 4 mg/kg (PPM or equivalent), H22 tumor-bearing mice, 0-4 h
Protocol: Male Kunming strain mice (KM, 18–22 g) were purchased from Qinglongshan, Experimental Animal Center (ZhenJiang, China). Animal experiments were conducted under principles of good laboratory animal care, and approved by the Ethical Committee for Laboratory Animals Care and Use of Jiangsu University. Mouse […] (H22) cells were purchased from the Cell Bank of Academy of Science (Shanghai, China).
Approximately 1 × 10^7 H22 cells suspended in PBS (pH 7.4) were inoculated subcutaneously into the right hind leg. When the tumor volume reached 1000 mm^3 (around 7 days), mice were intravenously injected with PPM (at a dose of 4 mg/kg) or its equivalent OCT(Phe)-S-PPM via the tail vein (n = 5). At indicated time periods (0.16, 0.50, 1, 2, 3 and 4 h) after injection, blood samples were collected and mice were then sacrificed by cervical dislocation to obtain the heart, liver, spleen, lung, kidney and tumor tissues. All the samples were then washed with ice-cold saline to remove the excess fluid, weighed and stored at –20°C. The thawed tissue was homogenized in 0.9% sodium chloride solution to obtain 0.2 g/mL tissues homogenate. This was followed by the addition of bufalin (50 μl, 5 μg/ml) to the tissues (0.2 ml) with uniform mixing. Ethyl acetate (1.2 ml) was then added to the resulting mixture and thoroughly mixed for 5 min. The total supernatant or organic layer was separated by centrifugation at 3000 rpm for 10 min and transferred to a clean tube. The supernatant was dried with nitrogen at 40°C on water bath to obtain the residue, which was later reconstituted in a 0.2 mL of mobile phase solution. After centrifugation at 20,000 rpm for 10 min, the supernatant was analyzed by HPLC. The mobile phase consisted of acetonitrile and water (38:62, v/v, pH = 3.0, adjusted by H3PO4). The flow rate was 1.0 mL·min^-1 and the detection wavelength was 220 nm. Other conditions included injection volume (20 μl), column temperature (25°C) and detection sensitivity (0.02 AUFS). The retention time of PPM and Bufalin was about 7.2 and 10.8 min, respectively. The calibration curve was A = 0.9958C-0.0299 (A represented the peak area ratio of PPM and Bufalin, while C was the concentration of PPM) and was linear in the range of 0.05–10 μg/mL with a correlation coefficient of R = 0.9995.

H22 tumor = test: Anti-tumor efficacy in H22 tumor-bearing mice; assay type: in vivo, mouse; settings: H22 tumor Kunming mice, 5 times; for final tumor weight: control 0.876 ± 0.154 g
Protocol: (§4) Treatment was initiated when the tumor diameter reached about 0.5 cm (around 3 days). Mice were randomly assigned to four groups (n = 6) namely the control, PPM, OCT and OCT(Phe)-S-PPM groups. Treatment were administered via tail vein at a dose of 4 mg/kg every other day during the experimental period for 5 times. The control group received corresponding amounts of blank injection (ethanol/Cremophor EL, v/v, 1/1, diluted 20 times with normal saline before the injection). Their weights were measured daily and tumor size was measured (major and minor axis) with a vernier caliper thereafter and at the end of the experiment. Tumor volumes were calculated using the formula: a^2×b×0.52, where a and b refer to the longest and shortest diameter, respectively. Tumor tissues were removed from the sacrificed mice and weighed to calculate the tumor inhibition rate (TIR (%) = (1-Wt/Wc) × 100%, where Wt and Wc are the mean tumor weights of the treated groups and the negative control group, respectively. Moreover, the heart, liver and tumor were rinsed with normal saline, fixed in 10% formalin, and then embedded in paraffin blocks for later slicing and staining with hematoxylin and eosin (H&E). Finally, the sections were observed under a microscope for histopathological evaluations

[2] = Toxicity in H22 tumor-bearing mice (serum AST, ALT, ALP, body weight, heart and liver histopathology); assay type: in vivo, mouse; settings: for pathological images of heart sections / pathological images of liver sections: HE staining, after treatment for ten days; for ALT / AST / ALP: serum, mice sacrificed 24 h after the last administration; for ALT: control 26.86 ± 6.44; for AST: control 50.55 ± 8.82; for ALP: control 112.06 ± 14.29
Protocol: as §4

[3] = tested on: MCF-7 breast cancer cells; test: MTT growth inhibition assay, MCF-7 cells; assay type: cell-based, human
Protocol: as §1, §2, §3

L-02 cells = test: cells; assay type: cell-based, human
Protocol: as §1
(§5) In brief, the cells were seeded into a 96-well plate at a density of 2.5 × 10^4 cells/well and incubated with OCT modified PPMs containing various concentrations (ranging from 0.001 to 50.0 μM) for 72 h. After incubation, 20 μL of MTT (5 mg/mL in pH 7.4 PBS) was added to each well, and the plates further incubated at 37°C for 4 h. The medium was then replaced with 100 μL DMSO. The optical density was measured by Microplate Reader (Thermo Electron Corporation) at 595 nm. The cell inhibition rate (IR) was calculated as follows: IR (%) = 1−A/A1×100%, where A refers to the average absorbance intensity of treated group and A1 refers to average absorbance intensity of untreated control group (the vehicle control group).
as §3, with “significant. 50% inhibiting concentration (IC50) of the sample was calculated with the aid of Curve-Expert software (version 1.3; Daniel G. Hyams, Hixson, TN, USA).” for “significant.”

[4] = cited from earlier work
[5] = tested on: MFC murine gastric carcinoma cells; test: In vitro cytotoxicity on MFC cells; assay type: cell-based, mouse; settings: 72 h of incubation
Protocol: as §5
as §3, with “significant. 50% inhibiting concentration (IC50) of the sample was calculated with the aid of Curve-Expert software (version 1.3; Daniel G. Hyams, Hixson, TN, USA).” for “significant.”

[6] = tested on: PC3, U937, HCT-8, Bel-7402, BGC823, A549 and A2780 cell lines; set-up: method as in PMID 17366373; settings: PC3, U937, HCT-8, Bel-7402, BGC823, A549 and A2780 cell lines in vitro; read-out: IC50 values, inhibition of proliferation; cited from earlier work
[7] = MTT, 72 h of incubation, read-out: IC50 MCF-7

Compound	AUC0–t Heart ([1]; i.v.)	AUC0–t Kidney ([1]; i.v.)	AUC0–t Liver ([1]; i.v.)	AUC0–t Lung ([1]; i.v.)	AUC0–t Plasma ([1]; i.v.)	AUC0–t Spleen ([1]; i.v.)	AUC0–t Tumor ([1]; i.v., 4 mg/kg)	final tumor weight (H22 tumor; 4 mg/kg i.v. every other day)	pathological images of heart sections [2]	pathological images of liver sections [2]	ALT [2]	AST [2]	ALP [2]	IC50 [3, 7]	other results
CO[C@H]1C[C@H](O[C@H]2CC[C@]3(C)[C@H]4CC[C@]5(C)[C@@H](C6=CC(=O)OC6)CC[C@]5(O)[C@@H]4CC[C@]3(O)C2)O[C@H](C)[C@H]1OC(=O)CCC(=O)N[C@H](Cc1ccccc1)C(=O)N[C@H]1CSSC[C@@H](C(=O)N[C@H](CO)[C@@H](C)O)NC(=O)[C@H]([C@@H](C)O)NC(=O)[C@H](CCCCN)NC(=O)[C@@H](Cc2c[nH]c3ccccc23)NC(=O)[C@H](Cc2ccccc2)NC1=O [OCT(Phe)-S-PPM]	1.315 ± 0.239 µg·h/g	1.152 ± 0.132 µg·h/g	1.441 ± 0.202 µg·h/g	0.839 ± 0.083 µg·h/g	1.409 ± 0.196 µg·h/g	0.632 ± 0.079 µg·h/g	1.338 µg·h/g and 1.338 ± 0.195 µg·h/g	0.287 ± 0.069 g	no evident differences from the control group	no evident differences from the control group	23.25 ±5.76 U/L	56.83 ± 7.34 U/L	124.90 ± 27.23 U/L	–	enhancement of cytotoxicity of PPM when conjugated with Phe-OCT (HepG2 hepatoma cells; HepG2, vs PPM): 1.88 fold; concentration in tumor tissue ([1]; 15 min post injection, i.v.): 0.168 µg/g; maximum concentration in tumor tissue ([1]; i.v., reached at 1 h): 0.618 µg/g; AUC0–t in plasma, fold higher than that of PPM ([1]; i.v., vs PPM): 1.73 fold; AUC0–t in tumor, fold higher than that of PPM ([1]; i.v., vs PPM): 2.17 fold; total AUC0~t of heart, fold lower than that of PPM ([1]; i.v., vs PPM, P < 0.01): 0.77 fold; total AUC0~t of liver, fold lower than that of PPM ([1]; i.v., vs PPM, P < 0.01): 0.73 fold; reduction of tumor volume compared to PPM (average) (H22 tumor; equimolar dose of PPM 4 mg/kg, i.v. every other day): 1.56 fold
C[C@@H](O)[C@@H]1NC(=O)[C@H](CCCCN)NC(=O)[C@@H](Cc2c[nH]c3ccccc23)NC(=O)[C@H](Cc2ccccc2)NC(=O)[C@@H](NC(=O)[C@H](N)Cc2ccccc2)CSSC[C@@H](C(=O)N[C@H](CO)[C@@H](C)O)NC1=O [OCT, Octreotide]	–	–	–	–	–	–	–	0.765 ± 0.126 g	–	–	34.48 ± 6.28 U/L	51.25 ± 5.2 U/L	129.48 ± 18.54 U/L	–	IC50 ([3]; 72 h): > 50 µM; IC50 (HepG2 hepatoma cells; 72 h): > 50 µM; IC50 (L-02 cells; 72 h): > 50 µM; plasma half-life, times more than endogenous somatostatin [4]: 30 times
CO[C@H]1C[C@H](O[C@H]2CC[C@]3(C)[C@H]4CC[C@]5(C)[C@@H](C6=CC(=O)OC6)CC[C@]5(O)[C@@H]4CC[C@]3(O)C2)O[C@H](C)[C@H]1O [PPM, periplocymarin]	1.692 ± 0.283 µg·h/g	1.773 ± 0.393 µg·h/g	1.967 ± 0.321 µg·h/g	0.457 ± 0.092 µg·h/g	0.812 ± 0.143 µg·h/g	0.257 ± 0.086 µg·h/g	0.614 µg·h/g and 0.614 ± 0.128 µg·h/g	0.423 ± 0.087 g	irregularly arranged myocardial cells and slightly lymphocyte infiltration in the interstitial tissue of the myocardium	obvious soma shrinking, dissociation of hepatic cord, dilation of hepatic sinusoids and lymphocytosis	62.43 ± 13.52 U/L	68.21 ± 8.95 U/L	184.23 ± 21.48 U/L	0.0359 µM	IC50 ([3]; Homo sapiens, MCF7, 72 h, MTT, 72 h of incubation, read-out: IC50 MCF-7): 0.0359 µM; IC50 (HepG2 hepatoma cells; Homo sapiens, HepG2, MTT, 72 h of incubation, read-out: IC50 HepG2): 0.138 µM; IC50 (L-02 cells; Homo sapiens, L02, MTT, 72 h of incubation, read-out: IC50 L-02): 0.128 µM; IC50 ([5]; Mus musculus): 0.0384 µM; Kp at 15 min ([1]; male, Kunming, mouse, heart / blood, iv, 15 min post injection, i.v. 4 mg/kg, read-out: ratio of the PPM concentration in heart and blood): 1.18; Kp at 1 h ([1]; male, Kunming, mouse, heart / blood, iv, 1 h post injection, i.v. 4 mg/kg, read-out: ratio of the PPM concentration in heart and blood): 5.21; concentration at 15 min ([1]; male, Kunming, mouse, tumor, iv, 4 mg/kg, 15 min post injection): 917 ng/g; tumor inhibition rate (H22 tumor; 4 mg/kg i.v. every other day, from tumor weights): 51.71%; average body weight ([2]; during treatment, vs control group, P < 0.01): less than that of the control group; IC50 [6]: 0.02 to 0.29 µM
C[C@]12CC[C@H](O)C[C@@]1(O)CC[C@@H]1[C@@H]2CC[C@]2(C)[C@@H](C3=CC(=O)OC3)CC[C@]12O [periplogenin]	–	–	–	–	–	–	–	–	–	–	–	–	–	0.901 µM	IC50 (HepG2 hepatoma cells; MTT, 72 h of incubation, read-out: IC50 HepG2): 0.581 µM; IC50 (L-02 cells; MTT, 72 h of incubation, read-out: IC50 L-02): 0.406 µM; IC50 [5]: 0.509 µM
Somatostatin [somatostatins]	–	–	–	–	–	–	–	–	–	–	–	–	–	–	half-life in circulation ([4]; in vivo): 1 to 3 min
